In PMC5405074, “Receptor-Mediated Melanoma Targeting with Radiolabeled α-Melanocyte-Stimulating Hormone: Relevance of the Net Charge of the Ligand” (Frontiers in Endocrinology, 2017):
Like-named read-outs stand apart in the source and are kept apart here.

Tests used:
MC1R (B16-F1 cells) = target: T1, MC1R (B16-F1 cells) (Mus musculus, UniProt Q01727); test: Competition binding assay with [^125I]-NDP-MSH, mouse B16-F1 melanoma cells; details: B16-F1 cells, [^125I]-NDP-MSH competition, 15°C, 3 h; n = 3–20; ± SEM; ^c = P < 0.05 vs. DOTA-NAP-amide; read-out: Receptor-binding potency IC50
T1 construct: endogenous in cells; host or cells: mouse B16-F1 melanoma cells
T1 sequence (Q01727 whole entry): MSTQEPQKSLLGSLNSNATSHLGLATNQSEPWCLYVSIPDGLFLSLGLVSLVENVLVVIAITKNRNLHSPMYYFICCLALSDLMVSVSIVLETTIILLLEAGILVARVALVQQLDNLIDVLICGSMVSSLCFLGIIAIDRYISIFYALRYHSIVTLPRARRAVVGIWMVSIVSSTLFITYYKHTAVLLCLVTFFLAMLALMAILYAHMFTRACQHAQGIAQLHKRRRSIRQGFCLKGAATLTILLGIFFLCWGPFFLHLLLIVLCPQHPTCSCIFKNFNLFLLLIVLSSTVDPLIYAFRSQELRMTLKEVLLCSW
Procedure: (§1) Triplicates of 100-µL volumes of B16-F1 or HBL cell suspensions adjusted to 4 × 10^6/mL were incubated in 96-well U-bottom microplates (Falcon 3077). The binding medium consisted of MEM with Earle’s salts, 0.2% BSA, and 0.3 mM 1,10-phenanthroline. This binding medium was called mouse binding medium (MBM). Triplicates of competitor peptide solution (50 µL) yielding final concentrations ranging from 1 × 10^−6 to 1 × 10^−12 M were added. [^125I]NDP-MSH (50,000 cpm) in 50 µL was finally added to each well. The plates were incubated at 15°C for 3 h for B16-F1 cells and at 37°C for 2 h for HBL cells. The incubation was stopped by covering the plates with ice for 10 min. A cell harvester was used to collect cell-bound radioactivity on filters (Packard Unifilter-96 GF/B). The collected radioactivity was counted on a TopCount scintillation counter (Packard) after addition of 50 µL Microscint-20 scintillation cocktail (Perkin Elmer). The IC50 values were calculated with the Prism 6 software (GraphPad Software Inc., San Diego CA, USA).
(§2) The binding affinity of the peptides to MC1R was assessed by competition binding assays using [^125I]-NDP-MSH as radioligand and both murine B16-F1 and human HBL cells.

MC1R (HBL cells) = target: T2, MC1R (HBL cells) (Homo sapiens, UniProt Q01726); test: Competition binding assay with [^125I]-NDP-MSH, human HBL melanoma cells; details: HBL cells, [^125I]-NDP-MSH competition, 37°C, 2 h; n = 3–20; ± SEM; ^c = P < 0.05 vs. DOTA-NAP-amide; read-out: Receptor-binding potency IC50
T2 construct: endogenous in cells; host or cells: human HBL melanoma cell line
T2 sequence (Q01726 whole entry): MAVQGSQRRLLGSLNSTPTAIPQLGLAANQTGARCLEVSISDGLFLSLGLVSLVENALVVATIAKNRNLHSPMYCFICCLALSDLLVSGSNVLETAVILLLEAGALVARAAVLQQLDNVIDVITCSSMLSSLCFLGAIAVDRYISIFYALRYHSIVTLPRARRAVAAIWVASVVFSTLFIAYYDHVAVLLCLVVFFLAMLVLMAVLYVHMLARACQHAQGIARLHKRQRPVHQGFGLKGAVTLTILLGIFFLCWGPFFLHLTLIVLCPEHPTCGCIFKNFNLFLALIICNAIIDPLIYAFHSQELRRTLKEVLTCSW
Procedure: as §1, §2

[1] = Biodistribution of ^111In-labeled peptides in B16-F1 melanoma-bearing mice; type: in vivo, mouse (B6D2F1); details: female, iv, total radioactivity, ^111In-labeled peptide, 185 kBq i.v., mean ± SEM of three experiments, n = 5 animals each
Procedure: About 5 × 10^5 B16-F1 cells were implanted subcutaneously to female B6D2F1 mice (C57BL/6 × DBA/2F1 hybrids; breeding pairs obtained from IFFA-CREDO, France). Seven days later, 185 kBq of ^111In-labeled ligand in 200 µL PBS/0.1% BSA were injected intravenously into the lateral tail vein of each mouse. Control mice were injected with a mixture of the tracer and 50 µg α-MSH to determine the non-specific uptake of radioligand. The animals were sacrificed 4, 24, and 48 h postinjection, dissected, and the tissues of interest collected, rinsed of excess blood, and weighed. The radioactivity emitted by each organ was measured in a γ-counter to determine the tissue uptake as percentage of the injected dose (ID) per gram of tissue. The total of injected radioactivity per animal was determined by extrapolation from the counts of a standard collected from the injection solution for each animal. Urine samples were collected at 10, 15, and 20 min and 4 h after injection and kept frozen at −80°C until use. Urine (1 vol) was mixed with methanol (2 vol) to precipitate proteins, and the supernatant was analyzed by RP-HPLC/γ-detection, as described in Ref. ([12]).
Results are expressed as means ± SEM, unless otherwise stated. The statistical evaluation of data was performed using the one- or two-way ANOVA test. When significant overall effects were obtained by ANOVA, multiple comparisons were made with the Bonferroni correction. P < 0.05 was considered statistically significant. The area under the curve (AUC) was calculated with the GraphPad Prism 6 software for the indicated period of time, using the mean tissue uptake value at each time point.

[2] = in vivo; cited from earlier work
[3] = B6D2F1 (C57BL/6 × DBA/2F1 hybrids), mouse, blood, read-out: Blood uptake
[4] = B6D2F1 (C57BL/6 × DBA/2F1 hybrids), mouse, muscle, read-out: Muscle uptake
[5] = B6D2F1 (C57BL/6 × DBA/2F1 hybrids), mouse, tumor, read-out: Tumor uptake
[6] = B6D2F1, mouse, bone, read-out: Bone uptake
[7] = B6D2F1, mouse, heart, read-out: Heart uptake
[8] = B6D2F1, mouse, kidney, read-out: Kidney uptake
[9] = B6D2F1, mouse, liver, read-out: Liver uptake
[10] = B6D2F1, mouse, lung, read-out: Lung uptake
[11] = B6D2F1, mouse, pancreas, read-out: Pancreas uptake
[12] = B6D2F1, mouse, small intestines, read-out: Small intestines uptake
[13] = B6D2F1, mouse, spleen, read-out: Spleen uptake
[14] = B6D2F1, mouse, stomach, read-out: Stomach uptake

**Q.** For `CCCC[C@H](NC(C)=O)C(=O)N[C@@H](CC(=O)O)C(=O)N[C@@H](Cc1c[nH]cn1)C(=O)N[C@H](Cc1ccccc1)C(=O)N[C@@H](CCCNC(=N)N)C(=O)N[C@@H](Cc1c[nH]c2ccccc12)C(=O)NCC(=O)N[C@@H](CCCCNC(=O)CN1CCN(CC(=O)O)CCN(CC(=O)O)CCN(CC(=O)O)CC1)C(N)=O` [DOTA-NAP-amide, [Ac-Nle^4,Asp^5,D-Phe^7,Lys^11(DOTA)]-α-MSH4-11, reference compound], which IC50 (MC1R (B16-F1 cells)) is on record?
**A.** Its IC50 is 1.38 ± 0.35 nM.

**Q.** What about the IC50 (MC1R (HBL cells)) of the same molecule?
**A.** Its IC50 is 3.09 ± 1.11 nM.

**Q.** What about the tissue uptake at 4 h [1, 3] of the same molecule?
**A.** The tissue uptake at 4 h was 0.09 ± 0.02 %ID/g.

**Q.** What about the tissue uptake at 24 h [1, 3] of the same molecule?
**A.** The tissue uptake at 24 h was 0.02 %ID/g.

**Q.** And the tissue uptake at 48 h ([1]; B6D2F1 (C57BL/6 × DBA/2F1 hybrids), mouse, bone, read-out: Bone uptake)?
**A.** Its tissue uptake at 48 h is 0.05 ± 0.01 %ID/g.

**Q.** What about the tissue uptake at 4 h [1, 4] of the same molecule?
**A.** Its tissue uptake at 4 h is 0.05 ± 0.01 %ID/g.

**Q.** And the tissue uptake at 24 h [1, 4]?
**A.** The tissue uptake at 24 h was 0.02 %ID/g.

**Q.** What about the tissue uptake at 48 h [1, 4] of the same molecule?
**A.** The tissue uptake at 48 h was 0.01 %ID/g.

**Q.** And the tissue uptake at 24 h [1, 5]?
**A.** Its tissue uptake at 24 h is 2.32 ± 0.15 %ID/g.

**Q.** And the tissue uptake at 48 h [1, 5]?
**A.** Its tissue uptake at 48 h is 1.41 ± 0.12 %ID/g.

**Q.** And the tissue uptake at 4 h [1, 6]?
**A.** The tissue uptake at 4 h was 0.11 ± 0.02 %ID/g.

**Q.** And the tissue uptake at 24 h [1, 6]?
**A.** Its tissue uptake at 24 h is 0.14 ± 0.02 %ID/g.

**Q.** And the tissue uptake at 4 h [1, 7]?
**A.** The tissue uptake at 4 h was 0.05 ± 0.01 %ID/g.

**Q.** And the tissue uptake at 24 h [1, 7]?
**A.** Its tissue uptake at 24 h is 0.03 %ID/g.

**Q.** What about the tissue uptake at 48 h [1, 7] of the same molecule?
**A.** Its tissue uptake at 48 h is 0.01 %ID/g.

**Q.** What about the tissue uptake at 24 h [1, 8] of the same molecule?
**A.** Its tissue uptake at 24 h is 2.41 ± 0.2 %ID/g.

**Q.** What about the tissue uptake at 48 h [1, 8] of the same molecule?
**A.** The tissue uptake at 48 h was 1.55 ± 0.07 %ID/g.

**Q.** What about the tissue uptake at 4 h [1, 9] of the same molecule?
**A.** Its tissue uptake at 4 h is 0.34 ± 0.05 %ID/g.

**Q.** What about the tissue uptake at 24 h [1, 9] of the same molecule?
**A.** Its tissue uptake at 24 h is 0.31 ± 0.02 %ID/g.

**Q.** What about the tissue uptake at 48 h [1, 9] of the same molecule?
**A.** Its tissue uptake at 48 h is 0.27 ± 0.07 %ID/g.

**Q.** What about the tissue uptake at 4 h [1, 10] of the same molecule?
**A.** The tissue uptake at 4 h was 0.08 ± 0.01 %ID/g.

**Q.** And the tissue uptake at 24 h [1, 10]?
**A.** The tissue uptake at 24 h was 0.05 ± 0.01 %ID/g.

**Q.** And the tissue uptake at 48 h [1, 10]?
**A.** Its tissue uptake at 48 h is 0.03 %ID/g.

**Q.** What about the tissue uptake at 4 h [1, 11] of the same molecule?
**A.** The tissue uptake at 4 h was 0.04 %ID/g.

**Q.** And the tissue uptake at 24 h [1, 11]?
**A.** The tissue uptake at 24 h was 0.03 %ID/g.

**Q.** And the tissue uptake at 48 h [1, 11]?
**A.** Its tissue uptake at 48 h is 0.02 %ID/g.

**Q.** What about the tissue uptake at 4 h [1, 12] of the same molecule?
**A.** The tissue uptake at 4 h was 0.07 ± 0.01 %ID/g.

**Q.** What about the tissue uptake at 24 h [1, 12] of the same molecule?
**A.** The tissue uptake at 24 h was 0.08 ± 0.01 %ID/g.

**Q.** What about the tissue uptake at 48 h [1, 12] of the same molecule?
**A.** The tissue uptake at 48 h was 0.05 ± 0.01 %ID/g.

**Q.** What about the tissue uptake at 4 h [1, 13] of the same molecule?
**A.** Its tissue uptake at 4 h is 0.14 ± 0.01 %ID/g.

**Q.** And the tissue uptake at 24 h [1, 13]?
**A.** The tissue uptake at 24 h was 0.11 ± 0.01 %ID/g.

**Q.** And the tissue uptake at 48 h [1, 13]?
**A.** Its tissue uptake at 48 h is 0.1 ± 0.01 %ID/g.

**Q.** And the tissue uptake at 4 h [1, 14]?
**A.** Its tissue uptake at 4 h is 0.09 ± 0.01 %ID/g.

**Q.** And the tissue uptake at 24 h [1, 14]?
**A.** Its tissue uptake at 24 h is 0.12 ± 0.02 %ID/g.

**Q.** And the tissue uptake at 48 h [1, 14]?
**A.** The tissue uptake at 48 h was 0.11 ± 0.05 %ID/g.

**Q.** What about the “Tumor and non-tumor tissue uptake (in words)” value [2] of the same molecule?
**A.** The value was “highest tumor uptake paired with minimal non-tumor tissue uptake, except for the kidneys”.
